In publication PMC11352258, “The Influence of Betulin and Its Derivatives on Selected Colorectal Cancer Cell Lines’ Viability and Their Antioxidant Systems” (Cells, 2024):
“And” between values parts separate entries of the source, which are not always exact repeats. Identical values can stand only once. Like-named read-outs stand apart in the source and are kept apart here.

What was measured:
SW1116 cells [1] = assay: MTT cytotoxicity assay, SW1116; settings: for IC50: read-out: IC50 value
Protocol: (§1) Six colorectal cancer cell lines, RKO, HT29, DLD-1, HCT116, Caco2 and SW1116 (CRL-2577, HTB-38, CCL-221, CCL-247, HTB-37, CCL-233; ATCC, Manassas, VA, USA, respectively, for CRC lines), and one normal cell line, CCD-841CoN (CRL-1790, ATCC, USA), were routinely cultured at 37 °C in a 5% CO2 incubator (Direct Heat CO2; Thermo Scientific, Waltham, MA, USA) in cell line-appropriate culture medium according to the manufacturer’s recommendations. Eagle’s minimum essential medium (EMEM) was used to culture RKO, Caco2 and CCD-841CoN lines, while McCoy’s 5A medium was used for HT29 and HCT116 lines. DLD-1 cells were grown in RPMI-1640 medium, whereas SW1116 cells were maintained in Leibovitz’s L-15 medium. All culture media were supplemented with 10% fetal bovine serum (EuroClone, Milan, Italy), and gentamycin at the concentration […] (BioWhittaker, Lonza, Basel, Switzerland) was also applied to prevent culture contamination.
(§2) For this purpose, cells were exposed to the test compound for 24 h at concentrations of 0.1, 1, 10, 20, 50 and 100 μg/mL. Control cells were not treated with the compounds. MTT (0.25 mg/mL) was then added to the cultures and incubated for 3 h at 37 °C. After a time, the cells were washed with phosphate buffered saline (PBS), and next, formazan dye was dissolved in 100 μL of dimethyl sulfoxide (Sigma-Aldrich, St Louis, MO, USA). Absorbance was measured at 540 nm using a Wallac 1420 VICTOR microplate reader (PerkinElmer, Waltham, MA, USA).

RKO cells [2] = assay: Total antioxidant capacity (ABTS+), RKO; assay type: cell-based; settings: 10 µg/mL, 24 h
Protocol: (§3) In addition, two colorectal cancer cell lines, RKO and SW1116, were distinguished based on a different response to the EB5 derivative. To perform subsequent analyses, the selected CRC lines were treated with EB5 derivative at a concentration of 10 µg/mL for 24 h. Untreated cells were used as a negative control. Three biological replicates were performed.
(§4) To examine the antioxidant capacity of the cells as well as lipid peroxidation and to evaluate the activity of antioxidant enzymes, the cells were suspended in lysis buffer (containing 4 mg of […]™ Protease Inhibitor Cocktail and 10 µL of Phosphatase Inhibitor Cocktail 3 in 1 mL of PBS; Sigma-Aldrich, St Louis, MO, USA). Subsequently, the cells were placed in liquid nitrogen for 30 min, followed by storage at −80 °C until further analysis.
The ABTS+ radical cation was used to assess the total antioxidant capacity (TAC) of the tested cells. The principle of the method is based on the reduction of the formed blue-green chromophore ABTS+ as a result of the reaction of ABTS (Sigma-Aldrich, St Louis, MO, USA) with potassium persulphate (Sigma-Aldrich, St Louis, MO, USA). The degree of decolorization of the ABTS+ radical cation depends on the antioxidant activity of the cells and is determined as a function of concentration and time in relation to Trolox reactivity (TEAC-Trolox equivalent antioxidant capacity).

CCD-841CoN cells = assay: in vitro; assay type: cell-based; settings: CCD-841CoN normal cells, MTT, 24 h; for IC50: read-out: IC50 value
From the text: (§5) Control cells were not treated with the compounds.

RKO cells [3] = assay: Lipid peroxidation, MDA assay, RKO; assay type: cell-based; settings: 10 µg/mL, 24 h
Protocol: (§6) In addition, two colorectal cancer cell lines, RKO and SW1116, were distinguished based on a different response to the EB5 derivative. […] Untreated cells were used as a negative control. Three biological replicates were performed. To examine the antioxidant capacity of the cells as well as lipid peroxidation and to evaluate the activity of antioxidant enzymes, the cells were suspended in lysis buffer (containing 4 mg of […]™ Protease Inhibitor Cocktail and 10 µL of Phosphatase Inhibitor Cocktail 3 in 1 mL of PBS; Sigma-Aldrich, St Louis, MO, USA). Subsequently, the cells were placed in liquid nitrogen for 30 min, followed by storage at −80 °C until further analysis. To assess the level of lipid peroxidation, the Malondialdehyde Assay Kit (Aoxre BioSciences, Burlingame, CA, USA) was used, according to the manufacturer’s recommendations.

[4] = tested on: CAT gene expression in RKO cells; assay: CAT mRNA, real-time RT-qPCR, RKO; assay type: cell-based; settings: 10 µg/mL, 24 h
Protocol: as §3
(§7) Total RNA from treated cells was extracted using TRIzol reagent (Sigma-Aldrich, St Louis, MO, USA) according to the manufacturer’s instructions. The obtained RNA was assessed qualitatively and quantitatively by agarose gel electrophoresis and by spectrophotometric measurement using MaestroNano MN-913 (MaestroGen Inc., Las Vegas, NV, USA), respectively. The obtained extracts provided the starting material for the assessment of genes changes at the mRNA level.
(§8) Changes in the expression of SOD1, SOD2, CAT and GPX3 genes involved in antioxidant systems were assessed by real-time RT-qPCR using a LightCycler® 480 System apparatus (Roche, Basel, Switzerland). A commercially purchased GoTaq® 1-Step RT-qPCR System (Promega, Madison, WI, USA) was used, while the primers and reaction conditions were the same as in the previous study performed by Kruszniewska-Rajs et al.. GAPDH was used as the reference gene. The mRNA expression level studied genes were then determined by the 2^−ΔCt relative quantification method. All samples were tested in triplicate. The specificity of the reaction was evaluated based on the melting temperature curve, as well as using electrophoresis of the amplification products in a 2% agarose gel.

HCT116 cells = assay: MTT cytotoxicity assay, HCT116; assay type: cell-based; settings: HCT 116, MTT, 24 h; for IC50: read-out: IC50 value
From the text: as §5

[5] = tested on: catalase (CAT) activity in RKO cells; assay: CAT activity in RKO cells; assay type: cell-based; settings: 10 µg/mL, 24 h
Protocol: as §3, §4
(§9) Superoxide dismutase (SOD), glutathione peroxidase (GPx) and catalase (CAT) activities were assessed using a commercially purchased Cayman Chemicals Superoxide Dismutase Assay Kit, a Cayman Chemicals Glutathione Peroxidase Assay Kit and a Catalase Assay Kit (Cayman Chemicals, Ann Arbor, MI, USA), respectively, according to the manufacturer’s recommendations and based on a previous study. […] The level of change in absorbance was measured spectrophotometrically at the appropriate wavelength for the assay, i.e., for SOD in the range 440–460 nm, for GPx at 340 nm and for CAT at 540 nm.

[6] = tested on: SOD1 gene expression in RKO cells; assay: SOD1 mRNA, real-time RT-qPCR, RKO; assay type: cell-based; settings: 10 µg/mL, 24 h
Protocol: as §3, §7, §8

[7] = tested on: SOD2 gene expression in RKO cells; assay: SOD2 mRNA, real-time RT-qPCR, RKO; assay type: cell-based; settings: 10 µg/mL, 24 h
Protocol: as §3, §7, §8

[8] = tested on: catalase (CAT) activity in SW1116 cells; assay: CAT activity in SW1116 cells; assay type: cell-based; settings: SW1116, 10 µg/mL, 24 h
Protocol: as §3, §4
Superoxide dismutase (SOD), glutathione peroxidase (GPx) and catalase (CAT) activities were assessed using a commercially purchased Cayman Chemicals Superoxide Dismutase Assay Kit, a Cayman Chemicals Glutathione Peroxidase Assay Kit and a Catalase Assay Kit (Cayman Chemicals, Ann Arbor, MI, USA), respectively, according to the manufacturer’s recommendations and based on a previous study. The cell supernatant from previously prepared cell lysates of the tested lines provided material for further analyses. The level of change in absorbance was measured spectrophotometrically at the appropriate wavelength for the assay, i.e., for SOD in the range 440–460 nm, for GPx at 340 nm and for CAT at 540 nm.

SW1116 cells [9] = assay: Lipid peroxidation, MDA assay, SW1116; assay type: cell-based; settings: SW1116, 10 µg/mL, 24 h
Protocol: as §6

[10] = tested on: CAT gene expression in SW1116 cells; assay: CAT mRNA, real-time RT-qPCR, SW1116; assay type: cell-based; settings: SW1116, 10 µg/mL, 24 h
Protocol: as §3, §7, §8

RKO cells [11] = assay: MTT cytotoxicity assay, RKO
Protocol: as §1, §2

HT29 cells = assay: MTT cytotoxicity assay, HT29; assay type: cell-based; settings: HT29, MTT, 24 h; for IC50: read-out: IC50 value
From the text: as §5

DLD-1 cells = assay: MTT cytotoxicity assay, DLD-1; assay type: cell-based; settings: DLD-1, MTT, 24 h; for IC50: read-out: IC50 value
From the text: as §5

in vitro = assay type: cell-based; settings: human
From the text: as §5

Caco2 cells = assay: MTT cytotoxicity assay, Caco2; assay type: cell-based; settings: Homo sapiens, Caco-2; Caco2, MTT, 24 h; read-out: IC50 value
[12] = tested on: SOD2 gene expression in SW1116 cells; assay: SOD2 mRNA, real-time RT-qPCR, SW1116; assay type: cell-based; settings: SW1116, 10 µg/mL, 24 h
Protocol: as §3, §7, §8

[13] = tested on: superoxide dismutase (SOD) activity in RKO cells; assay: SOD activity in RKO cells; assay type: cell-based; settings: 10 µg/mL, 24 h
Protocol: as §3, §4, §9

## N.N.[Cl][Pt][Cl] [Cisplatin, cisplatin]
SW1116 cells [1]; SW1116, MTT, 24 h
  IC50 value: >100 µg/mL
  IC50: > 333 µM
RKO cells [2]
  reduction in TAC compared to the control cells: about 23.6%
CCD-841CoN cells
  IC50 value: 27.59 µg/mL
  IC50: 91.9 µM
RKO cells [3]
  MDA level compared to the control group: did not cause changes
[4]
  CAT gene expression vs. 5FU: significant increase in expression
HCT116 cells
  IC50 value: 3.02 µg/mL
  IC50: 10.1 µM
[5]
  CAT activity compared to the betulin-treated cells: slight decrease
[6]
  SOD1 gene expression vs. 5FU-treated cells: statistically significant increase in expression
  SOD1 gene expression vs. non-treated cells: statistically significant increase in expression
[7]
  SOD2 gene expression vs. 5FU-treated cells: higher expression
  SOD2 gene expression vs. untreated cells: statistically significant increase in SOD2 gene expression
[8]
  catalase activity compared to cells treated with EB5: higher catalase activity
  catalase activity compared to cells treated with betulin: higher catalase activity
  catalase activity compared to the control: higher catalase activity
SW1116 cells [9]
  MDA level compared to 5FU-treated cells: higher level of MDA
  MDA level compared to betulin-treated cells: higher level of MDA
  MDA level compared to the control: higher level of MDA
[10]
  CAT gene expression vs. 5FU: difference in the expression
RKO cells [11]; MTT, 24 h
  IC50 value: 6.35 µg/mL
RKO cells [11]; read-out: IC50 value, MTT, 24 h
  IC50: 21.2 µM
HT29 cells
  IC50 value: >100 µg/mL
  IC50: > 333 µM
DLD-1 cells
  IC50 value: 27.72 µg/mL
  IC50: 92.4 µM

## C#CC(=O)OC[C@]12CC[C@@H](C(=C)C)[C@@H]1[C@H]1CC[C@@H]3[C@@]4(C)CC[C@H](O)C(C)(C)[C@@H]4CC[C@@]3(C)[C@]1(C)CC2 [EB5, 28-propynylobetulin]
SW1116 cells [1]; Homo sapiens, SW 1116, 24 h
  viability at 10 µg/mL: ≥ 50%
  IC50: 34.4 µg/mL and 69.5 µM
CCD-841CoN cells; Homo sapiens
  IC50: > 100 µg/mL and > 202 µM
In vitro
  viability at 24 h, 100 μg/mL: ≥ 50%
RKO cells [3]
  increase in MDA levels compared to the control cells: about 98.0%
Caco2 cells
  IC50: 16.9 µg/mL and 34.2 µM
[4]
  CAT gene expression vs. 5FU: significant increase in expression
  CAT gene expression vs. cisplatin: significant decrease in expression
HCT116 cells; Homo sapiens
  IC50: 16.7 µg/mL and 33.7 µM
[5]
  CAT activity compared to the betulin-treated cells: slight decrease
[7]
  SOD2 gene expression vs. cisplatin: significant decrease in SOD2 gene expression
[8]
  catalase activity compared to the control: did not cause changes
[12]
  SOD2 gene expression vs. 5FU: Decreased SOD2 gene expression
  SOD2 gene expression vs. cisplatin: Decreased SOD2 gene expression
SW1116 cells [9]
  MDA level compared to the control: did not cause changes
RKO cells [11]; Homo sapiens, 24 h
  viability at 10 µg/mL: ≥ 50%
RKO cells [11]; Homo sapiens, 24 h, read-out: IC50 value
  IC50: 12.2 µg/mL and 24.6 µM
HT29 cells; Homo sapiens, HT-29
  IC50: 8.25 µg/mL and 16.7 µM
[13]
  SOD activity compared to cells treated with betulin: modest increase
DLD-1 cells; Homo sapiens
  IC50: 11.1 µg/mL and 22.4 µM
